The values below come from US20030069194A1, “Inhibition of viral replication by targeting RNA-DNA complexes” (priority 2001, published 2003).

The test system of experiment [1] is 18C-18R duplex (RNase H substrate of HIV-1 RT). Briefly: RT-induced RNase H cleavage of the 18C-18R duplex (gel assay). The experiment is classed as biochemical. The settings on record: 18C-18R duplex; aminoglycosides 312.5 μM; FIG. 1b, 1d. An excerpt: The first model oligonucleotide was a 18mer chimeric duplex (18C-18R). 18C-18R mimics a RNase H substrate during minus-strand strong-stop synthesis. (FIG. 1a). Mueller, U. et al. Crystal structure of an eight-base pair duplex containing the 3′-DNA RNA-5′ junction formed during initiation of minus-strand synthesis of HIV replication, Biochemistry 37,12005-12011 (1998). […] Note that RT cleaves the RNA strand (18R) opposite the chimeric RNA-DNA strand (18C) at three sites (FIGS. 1a, b). The primary cleavage site lies between base positions +1 and +2 (counting from the RNA-DNA junction in the 5′ direction on the cleaved RNA strand). Two other minor cleavage sites lie between positions +3 and +4 and between positions −1 and +1, with the former site being cleaved to a greater extent than the latter site. Götte, M. et al., HIV-1 Reverse transcriptase-associated RNase H cleaves RNA/RNA in arrested complexes: Implications for the mechanism by which RNase H discriminates between RNA/RNA and RNA/DNA, EMBO J. 14, 833-841 (1995).
(§1) Recombinant HIV-1 RT p66 was isolated from Escherichia coli JM 109. Pandey, V. N. et al, Role of methionine 184 of human immunodeficiency virus type-1 reverse transcriptase in the polymerase function and fidelity of DNA synthesis, Biochemistry 35, 2168-2179 (1996). The 18C and 18R oligonucleotides were purchased from Dharmacon Research, Inc. (Lafayette, Colo.). The 18D oligonucleotide was obtained from Integrated DNA Technologies, Inc. (Coralville, Iowa). Neomycin trisulfate trihydrate, the free base of tobramycin, paromomycin sulfate, and kanamycin B sulfate were obtained from Fluka, while kanamycin A monosulfate and ribostamycin sulfate dihydrate were obtained from Sigma.
(§2) The RNase H activity of RT was assayed in a 10 μl reaction mixture containing 10 mM PIPES (pH 6.0) and 5 mM MgCl2. Ten pmol of either 18C or 18R were ^32P-labeled at the 5′ end using T4 polynucleotide kinase. For the cleavage experiments, different aminoglycosides were mixed with 0.5 μM of target duplex. A small amount of RT, 0.1 μg, was then added to initiate the cleavage reaction. After incubation at 37° C. for 30 min, the reaction was stopped by addition of 3 M urea containing a mixture of bromophenol blue and xylene cyanol. Denaturation of the 18C-18R duplex required the addition of 5 M urea as well as heating at 95° C. for 5 min prior to gel loading. The cleavage products were resolved in a 10% polyacrylamide gel containing 8 M urea. The gels were subsequently analyzed using a phosphoimager (Molecular Dynamics, Inc.).

Experiment [2] relates to 18C-18D duplex (RNase H substrate of HIV-1 RT). Put plainly: RT-induced RNase H cleavage of the 18C-18D duplex (gel assay). Type of experiment: biochemical. The settings on record: 18C-18D duplex; aminoglycosides 2.0 mM; FIG. 2b, 2c.
Description: The second model oligonucleotide was a 18mer chimeric duplex (18C-18D). 18C-18D mimics a RNase H substrate during plus-strand strong-stop synthesis (FIG. 2a), which occurs following minus-strand DNA synthesis. Fedoroff, O. Y., et. al., B. R. Structural variation among retroviral primer-DNA junctions: Solution structure of the HIV-1 (−)-strand Okazaki fragment r(gcca)d(CTGC)-d(GCAGTGGC), Biochemistry 35,11070-11080 (1996). For the 18C-18D duplex, RT cleaves the RNA portion of the chimeric strand (18C) opposite the DNA strand (18D) at only a single site (FIGS. 2a, b), in marked contrast to the three cleavage sites observed in the 18C-18Rduplex. This unique cleavage site lies between base positions +1 and +2 (counting from the RNA-DNA junction in the 5′ direction on the cleaved chimeric strand). Furfine, E. S. & Reardon, J. E., Human immunodeficiency virus reverse transcriptase ribonuclease H: Specificity of tRNA(Lys3)-primer excision, Biochemistry 30, 7041-7046 (1991); Smith, J. S. & Roth, M. J. Specificity of human immunodeficiency virus-1 reverse transcriptase-associated ribonuclease H in removal of the minus-strand primer tRNA(Lys3), J. Biol. Chem. 267, 15071-15079 (1992). […] As noted above for the 18C-18R duplex, this hierarchy of cleavage inhibition correlates with the relative binding affinities of the three ligands for the 18C-18D duplex.
as §1
as §2, with “containing 110” for “containing 10”
To determine the nature of the aminoglycoside-induced inhibition of RT-catalyzed RNase H cleavage, the impact of RT concentration on neomycin-induced inhibition was examined. […] In the presence of 1 mM neomycin, increasing the concentrations of RT overcomes the RNase H inhibitory effect of the drug.

SMILES strings stand for the structures. Structures can show the parent of a compound that is named as a salt.

With `NC[C@H]1O[C@H](O[C@H]2[C@H](O)[C@@H](O[C@H]3O[C@H](CO)[C@@H](O)[C@H](N)[C@H]3O)[C@H](N)C[C@@H]2N)[C@H](O)[C@@H](O)[C@@H]1O.O=S(=O)(O)O` [kanamycin A, kanamycin A monosulfate], in experiment [1], the “hierarchy of the extent of inhibition of RT-induced cleavage” value is listed as “neomycin>paromomycin>tobramycin>kanamycin B>ribostamycin>>kanamycin A”.
Same read-out and setting: with `NC[C@H]1O[C@H](O[C@H]2[C@H](O)[C@@H](O[C@H]3O[C@H](CO)[C@@H](O)[C@H](N)[C@H]3O)[C@H](N)C[C@@H]2N)[C@H](N)[C@@H](O)[C@@H]1O.O=S(=O)(O)O` [kanamycin B, kanamycin B sulfate] the entry was “neomycin>paromomycin>tobramycin>kanamycin B>ribostamycin>>kanamycin A”.
`NC[C@H]1O[C@H](O[C@H]2[C@H](O[C@@H]3O[C@H](CO)[C@@H](O)[C@H]3O)[C@@H](O)[C@H](N)C[C@@H]2N)[C@H](N)[C@@H](O)[C@@H]1O` [ribostamycin, ribostamycin sulfate dihydrate]: the “hierarchy of inhibition of RT-induced cleavage” value in experiment [2] is listed as “neomycin>paromomycin>ribostamycin”. Further, in experiment [1], the “hierarchy of the extent of inhibition of RT-induced cleavage” value is on record as “neomycin>paromomycin>tobramycin>kanamycin B>ribostamycin>>kanamycin A”.
Regarding `NC[C@H]1O[C@H](O[C@H]2[C@H](O)[C@@H](O[C@H]3O[C@H](CO)[C@@H](O)[C@H](N)[C@H]3O)[C@H](N)C[C@@H]2N)[C@H](N)C[C@@H]1O` [tobramycin], the “hierarchy of the extent of inhibition of RT-induced cleavage” value in experiment [1] is reported as “neomycin>paromomycin>tobramycin>kanamycin B>ribostamycin>>kanamycin A”.
